Source: article PMC3814616, “BRAF inhibitors suppress apoptosis through off-target inhibition of JNK signaling” (eLife, 2013)
Where two headings read alike, the source gives them in different places.

Legend:
A375 melanoma cell line = details: ref Tsai et al., 2008; cited from earlier work
BRAF(V600E) = BRAF(V600E) (Homo sapiens, UniProt P15056, V600E); experiment: biochemical
SRB12 cells = experiment: UV-induced apoptosis, FACS Annexin V+, TMRE-low; assay type: cell-based, human; details: 1 kJ/m^2 UVB, 1 μM, 24 hr, vs DMSO
BRK (PTK6) [1] = target: T1, BRK (PTK6) (Homo sapiens, UniProt Q13882); experiment: Quantitative competitive binding assay (KINOMEscan); details: for IC50: estimated Kd, averaged pointwise estimates, transformed Hill equation, read-out: Calculated estimate of IC50; for remaining binding at 0.05 µM: read-out: Percent control (50 nM); for remaining binding at 0.2 µM: read-out: Percent control (200 nM); for remaining binding at 1 µM: read-out: Percent control (1000 nM); for remaining binding at 10 µM: read-out: Percent control (10 μM)
phospho-ERK = details: A375 and WM35
MLK2 (MAP3K10) = target: T2, MLK2 (MAP3K10) (Homo sapiens, UniProt Q02779); experiment: Quantitative competitive binding assay (KINOMEscan); details: for remaining binding at 0.05 µM: read-out: Percent control (50 nM); for remaining binding at 0.2 µM: read-out: Percent control (200 nM); for remaining binding at 10 µM: read-out: Percent control (10 μM)
T2 construct: purchased KINOMEscan (DiscoveRx), San Diego, CA

HaCaT cells [2] = experiment: UV-induced apoptosis, FACS Annexin V+, TMRE-low; assay type: cell-based, human; details: 1 kJ/m^2 UVB, 1 μM, 24 hr, vs DMSO
HaCaT cells [3] = experiment: Doxorubicin-induced apoptosis, FACS; details: 1 μM, 24 hr
BLK = target: T3, BLK (Homo sapiens, UniProt P51451); parameters: method as in Bollag et al., 2010; details: ref Bollag et al., 2010; read-out: Published biochemical IC50; cited from earlier work
T3 construct: purchased KINOMEscan (DiscoveRx), San Diego, CA

MINK (MINK1) = target: T4, MINK (MINK1) (Homo sapiens, UniProt Q8N4C8); parameters: method as in Bollag et al., 2010; details: ref Bollag et al., 2010; read-out: Published biochemical IC50; cited from earlier work
T4 construct: purchased KINOMEscan (DiscoveRx), San Diego, CA

human full-length ZAK = target: T5, human full-length ZAK (Homo sapiens, UniProt Q9NYL2); experiment: In vitro kinase assay (Reaction Biology); assay type: biochemical
T5 construct: In vitro kinase assays were performed using human full-length ZAK; purchased Reaction Biology

MAP4K5 = target: T6, MAP4K5 (Homo sapiens, UniProt Q9Y4K4); parameters: method as in Bollag et al., 2010; details: ref Bollag et al., 2010; read-out: Published biochemical IC50; cited from earlier work
T6 construct: purchased KINOMEscan (DiscoveRx), San Diego, CA

FGR = target: T7, FGR (Homo sapiens, UniProt P09769); parameters: method as in Bollag et al., 2010; details: ref Bollag et al., 2010; read-out: Published biochemical IC50; cited from earlier work
T7 construct: purchased KINOMEscan (DiscoveRx), San Diego, CA

ASK1 (MAP3K5) = target: T8, ASK1 (MAP3K5) (Homo sapiens, UniProt Q99683); parameters: method as in Bollag et al., 2010; details: ref Bollag et al., 2010; read-out: Published biochemical IC50; cited from earlier work
T8 construct: purchased KINOMEscan (DiscoveRx), San Diego, CA
T8 sequence (Q99683 1-1374): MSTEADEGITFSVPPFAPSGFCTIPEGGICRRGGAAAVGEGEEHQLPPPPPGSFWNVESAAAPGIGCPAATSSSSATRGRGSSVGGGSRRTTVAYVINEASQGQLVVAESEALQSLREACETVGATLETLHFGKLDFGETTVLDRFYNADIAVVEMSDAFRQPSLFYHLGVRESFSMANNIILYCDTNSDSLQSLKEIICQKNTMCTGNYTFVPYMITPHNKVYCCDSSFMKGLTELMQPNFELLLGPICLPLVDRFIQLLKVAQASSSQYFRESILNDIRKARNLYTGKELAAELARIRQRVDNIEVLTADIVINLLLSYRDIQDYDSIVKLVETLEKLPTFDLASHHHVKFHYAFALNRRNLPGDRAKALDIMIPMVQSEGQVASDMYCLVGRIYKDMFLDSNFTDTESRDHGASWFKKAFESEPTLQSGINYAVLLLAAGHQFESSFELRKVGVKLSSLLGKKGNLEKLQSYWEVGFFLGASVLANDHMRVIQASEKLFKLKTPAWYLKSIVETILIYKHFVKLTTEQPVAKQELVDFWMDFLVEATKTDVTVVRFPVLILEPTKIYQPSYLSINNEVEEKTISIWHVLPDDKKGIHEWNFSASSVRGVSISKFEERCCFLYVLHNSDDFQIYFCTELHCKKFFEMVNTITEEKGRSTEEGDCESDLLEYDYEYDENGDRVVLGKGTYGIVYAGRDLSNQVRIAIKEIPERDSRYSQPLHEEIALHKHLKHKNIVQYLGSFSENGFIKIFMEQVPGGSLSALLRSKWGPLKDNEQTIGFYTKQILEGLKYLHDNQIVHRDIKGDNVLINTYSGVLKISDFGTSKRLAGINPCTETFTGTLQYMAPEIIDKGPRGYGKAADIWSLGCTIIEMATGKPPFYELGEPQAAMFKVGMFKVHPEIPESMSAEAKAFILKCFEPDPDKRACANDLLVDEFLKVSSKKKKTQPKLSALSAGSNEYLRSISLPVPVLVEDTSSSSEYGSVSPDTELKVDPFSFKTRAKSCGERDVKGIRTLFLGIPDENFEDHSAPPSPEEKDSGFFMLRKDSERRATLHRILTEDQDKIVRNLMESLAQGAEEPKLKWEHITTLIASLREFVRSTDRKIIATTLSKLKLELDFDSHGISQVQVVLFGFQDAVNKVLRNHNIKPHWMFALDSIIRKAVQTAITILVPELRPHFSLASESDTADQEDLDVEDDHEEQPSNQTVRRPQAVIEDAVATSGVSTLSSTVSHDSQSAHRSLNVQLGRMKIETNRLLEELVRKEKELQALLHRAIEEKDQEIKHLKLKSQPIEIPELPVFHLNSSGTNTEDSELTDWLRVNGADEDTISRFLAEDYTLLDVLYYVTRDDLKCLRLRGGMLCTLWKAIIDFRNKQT

BRK (PTK6) [4] = target: T1, BRK (PTK6); details: ref Bollag et al., 2010; read-out: Published biochemical IC50; cited from earlier work
[5] = system: phospho-JNK and phospho-p38; experiment: Western blot, UV-induced phospho-JNK and phospho-p38 in NHEKs; assay type: cell-based, human; details: NHEK, 1 μM, most significantly at 6 and 24 hr
Text: We next examined the responses of primary normal human epidermal keratinocytes (NHEKs) to vemurafenib. […] In probing members of the BCL2 family, we found similar results to those in the cSCC and HaCaT cell lines. […] The advantage of using primary cells is that p53 is intact.
Figure 2. […] DOI: http://dx.doi.org/10.7554/eLife.00969.010 [drawing 5]

[6] = read-out: Percent control (1000 nM)

BRAF(V600E), sequence (P15056 whole entry V600E): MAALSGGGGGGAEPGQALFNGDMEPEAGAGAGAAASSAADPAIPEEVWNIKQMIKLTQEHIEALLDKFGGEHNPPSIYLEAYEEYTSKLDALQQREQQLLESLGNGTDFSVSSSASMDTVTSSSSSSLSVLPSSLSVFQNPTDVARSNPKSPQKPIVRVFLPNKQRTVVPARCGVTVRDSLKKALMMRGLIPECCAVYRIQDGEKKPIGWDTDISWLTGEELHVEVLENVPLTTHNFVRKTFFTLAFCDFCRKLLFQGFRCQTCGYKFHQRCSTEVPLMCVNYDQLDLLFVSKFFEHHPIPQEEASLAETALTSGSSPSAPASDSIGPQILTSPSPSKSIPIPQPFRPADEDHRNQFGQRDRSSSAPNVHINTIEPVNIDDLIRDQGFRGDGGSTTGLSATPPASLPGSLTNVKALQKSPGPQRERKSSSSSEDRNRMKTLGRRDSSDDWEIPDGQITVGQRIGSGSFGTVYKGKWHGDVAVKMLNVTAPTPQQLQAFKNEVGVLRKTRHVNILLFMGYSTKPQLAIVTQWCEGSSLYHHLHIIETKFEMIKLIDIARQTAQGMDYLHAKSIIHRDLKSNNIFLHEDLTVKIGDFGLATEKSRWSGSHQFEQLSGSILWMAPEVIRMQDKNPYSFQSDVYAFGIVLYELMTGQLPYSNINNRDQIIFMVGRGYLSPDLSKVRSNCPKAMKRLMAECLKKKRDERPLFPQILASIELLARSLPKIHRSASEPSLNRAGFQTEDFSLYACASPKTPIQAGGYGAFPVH
T2 sequence (Q02779 whole entry): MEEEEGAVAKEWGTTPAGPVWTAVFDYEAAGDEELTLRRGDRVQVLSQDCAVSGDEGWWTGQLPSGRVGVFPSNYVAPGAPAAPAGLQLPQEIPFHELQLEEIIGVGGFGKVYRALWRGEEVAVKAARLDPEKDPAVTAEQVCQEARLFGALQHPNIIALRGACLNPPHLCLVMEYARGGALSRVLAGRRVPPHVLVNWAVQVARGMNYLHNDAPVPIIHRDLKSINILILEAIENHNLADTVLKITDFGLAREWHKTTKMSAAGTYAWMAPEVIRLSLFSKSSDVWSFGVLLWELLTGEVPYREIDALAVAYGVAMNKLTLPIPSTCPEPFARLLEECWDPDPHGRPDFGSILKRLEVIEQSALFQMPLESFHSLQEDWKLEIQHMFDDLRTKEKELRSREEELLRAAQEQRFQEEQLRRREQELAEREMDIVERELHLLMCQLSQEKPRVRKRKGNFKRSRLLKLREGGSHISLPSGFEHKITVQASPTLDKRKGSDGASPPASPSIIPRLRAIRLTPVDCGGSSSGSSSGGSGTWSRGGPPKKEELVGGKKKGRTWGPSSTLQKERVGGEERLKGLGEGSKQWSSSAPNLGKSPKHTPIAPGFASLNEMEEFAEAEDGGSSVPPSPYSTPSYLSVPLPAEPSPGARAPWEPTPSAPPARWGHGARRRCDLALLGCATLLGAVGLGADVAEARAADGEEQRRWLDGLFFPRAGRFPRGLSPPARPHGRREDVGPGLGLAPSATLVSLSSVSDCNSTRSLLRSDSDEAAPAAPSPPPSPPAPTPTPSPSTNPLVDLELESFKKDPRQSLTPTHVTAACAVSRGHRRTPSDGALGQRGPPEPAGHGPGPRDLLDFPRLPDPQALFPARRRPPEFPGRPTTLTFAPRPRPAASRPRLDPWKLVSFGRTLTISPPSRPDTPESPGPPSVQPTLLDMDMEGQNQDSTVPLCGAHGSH
T1 sequence (Q13882 whole entry): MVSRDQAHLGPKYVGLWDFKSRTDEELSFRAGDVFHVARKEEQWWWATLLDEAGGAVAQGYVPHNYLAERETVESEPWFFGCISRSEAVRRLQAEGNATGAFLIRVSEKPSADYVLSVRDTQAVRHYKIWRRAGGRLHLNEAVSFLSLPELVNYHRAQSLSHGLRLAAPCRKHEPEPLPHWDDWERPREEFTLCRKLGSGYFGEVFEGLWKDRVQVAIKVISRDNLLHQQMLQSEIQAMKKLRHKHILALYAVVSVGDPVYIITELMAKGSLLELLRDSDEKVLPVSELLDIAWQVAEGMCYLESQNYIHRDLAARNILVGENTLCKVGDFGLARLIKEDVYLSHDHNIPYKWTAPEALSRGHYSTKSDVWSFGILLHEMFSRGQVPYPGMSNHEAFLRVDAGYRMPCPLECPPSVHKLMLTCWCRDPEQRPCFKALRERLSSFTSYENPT
T5 sequence (Q9NYL2 1-455 isoform Q9NYL2-2): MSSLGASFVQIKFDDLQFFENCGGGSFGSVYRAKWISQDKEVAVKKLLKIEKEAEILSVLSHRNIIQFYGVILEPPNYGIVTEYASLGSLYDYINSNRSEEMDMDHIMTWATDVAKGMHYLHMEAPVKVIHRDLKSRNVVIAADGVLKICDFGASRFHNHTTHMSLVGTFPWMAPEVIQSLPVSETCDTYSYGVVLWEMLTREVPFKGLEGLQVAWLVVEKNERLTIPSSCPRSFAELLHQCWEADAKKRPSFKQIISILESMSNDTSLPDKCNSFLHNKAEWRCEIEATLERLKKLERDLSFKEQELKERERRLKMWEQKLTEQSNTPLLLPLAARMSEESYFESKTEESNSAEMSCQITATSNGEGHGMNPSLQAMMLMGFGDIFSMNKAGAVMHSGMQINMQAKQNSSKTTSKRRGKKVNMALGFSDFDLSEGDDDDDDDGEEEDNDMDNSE
T7 sequence (P09769 whole entry): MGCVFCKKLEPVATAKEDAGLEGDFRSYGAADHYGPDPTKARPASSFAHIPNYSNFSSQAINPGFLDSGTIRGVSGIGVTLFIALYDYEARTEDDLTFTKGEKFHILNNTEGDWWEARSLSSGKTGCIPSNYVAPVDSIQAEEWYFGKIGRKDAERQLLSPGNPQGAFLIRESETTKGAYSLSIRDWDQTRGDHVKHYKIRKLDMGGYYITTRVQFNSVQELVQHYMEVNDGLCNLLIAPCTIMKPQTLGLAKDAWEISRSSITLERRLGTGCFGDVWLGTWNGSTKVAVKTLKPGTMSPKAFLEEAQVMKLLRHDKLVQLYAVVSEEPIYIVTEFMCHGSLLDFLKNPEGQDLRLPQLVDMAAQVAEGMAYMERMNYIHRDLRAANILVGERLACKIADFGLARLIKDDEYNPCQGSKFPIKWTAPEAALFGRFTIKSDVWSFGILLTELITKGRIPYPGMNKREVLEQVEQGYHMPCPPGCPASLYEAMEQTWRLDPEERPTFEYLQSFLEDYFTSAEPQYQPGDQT
T3 sequence (P51451 whole entry): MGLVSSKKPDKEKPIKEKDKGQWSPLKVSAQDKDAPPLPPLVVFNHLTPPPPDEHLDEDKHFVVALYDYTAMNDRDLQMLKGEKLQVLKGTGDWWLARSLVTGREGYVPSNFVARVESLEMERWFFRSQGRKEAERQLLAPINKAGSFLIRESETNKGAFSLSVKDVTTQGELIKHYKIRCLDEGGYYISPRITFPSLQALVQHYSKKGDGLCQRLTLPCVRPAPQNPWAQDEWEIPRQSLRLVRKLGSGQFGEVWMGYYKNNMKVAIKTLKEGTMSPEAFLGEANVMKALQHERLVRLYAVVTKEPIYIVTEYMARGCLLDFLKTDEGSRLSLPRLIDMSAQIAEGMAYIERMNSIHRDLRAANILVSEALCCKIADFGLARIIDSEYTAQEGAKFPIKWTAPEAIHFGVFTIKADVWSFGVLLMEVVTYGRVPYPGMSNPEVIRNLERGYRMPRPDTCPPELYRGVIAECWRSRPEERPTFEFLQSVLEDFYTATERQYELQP
T4 sequence (Q8N4C8 whole entry): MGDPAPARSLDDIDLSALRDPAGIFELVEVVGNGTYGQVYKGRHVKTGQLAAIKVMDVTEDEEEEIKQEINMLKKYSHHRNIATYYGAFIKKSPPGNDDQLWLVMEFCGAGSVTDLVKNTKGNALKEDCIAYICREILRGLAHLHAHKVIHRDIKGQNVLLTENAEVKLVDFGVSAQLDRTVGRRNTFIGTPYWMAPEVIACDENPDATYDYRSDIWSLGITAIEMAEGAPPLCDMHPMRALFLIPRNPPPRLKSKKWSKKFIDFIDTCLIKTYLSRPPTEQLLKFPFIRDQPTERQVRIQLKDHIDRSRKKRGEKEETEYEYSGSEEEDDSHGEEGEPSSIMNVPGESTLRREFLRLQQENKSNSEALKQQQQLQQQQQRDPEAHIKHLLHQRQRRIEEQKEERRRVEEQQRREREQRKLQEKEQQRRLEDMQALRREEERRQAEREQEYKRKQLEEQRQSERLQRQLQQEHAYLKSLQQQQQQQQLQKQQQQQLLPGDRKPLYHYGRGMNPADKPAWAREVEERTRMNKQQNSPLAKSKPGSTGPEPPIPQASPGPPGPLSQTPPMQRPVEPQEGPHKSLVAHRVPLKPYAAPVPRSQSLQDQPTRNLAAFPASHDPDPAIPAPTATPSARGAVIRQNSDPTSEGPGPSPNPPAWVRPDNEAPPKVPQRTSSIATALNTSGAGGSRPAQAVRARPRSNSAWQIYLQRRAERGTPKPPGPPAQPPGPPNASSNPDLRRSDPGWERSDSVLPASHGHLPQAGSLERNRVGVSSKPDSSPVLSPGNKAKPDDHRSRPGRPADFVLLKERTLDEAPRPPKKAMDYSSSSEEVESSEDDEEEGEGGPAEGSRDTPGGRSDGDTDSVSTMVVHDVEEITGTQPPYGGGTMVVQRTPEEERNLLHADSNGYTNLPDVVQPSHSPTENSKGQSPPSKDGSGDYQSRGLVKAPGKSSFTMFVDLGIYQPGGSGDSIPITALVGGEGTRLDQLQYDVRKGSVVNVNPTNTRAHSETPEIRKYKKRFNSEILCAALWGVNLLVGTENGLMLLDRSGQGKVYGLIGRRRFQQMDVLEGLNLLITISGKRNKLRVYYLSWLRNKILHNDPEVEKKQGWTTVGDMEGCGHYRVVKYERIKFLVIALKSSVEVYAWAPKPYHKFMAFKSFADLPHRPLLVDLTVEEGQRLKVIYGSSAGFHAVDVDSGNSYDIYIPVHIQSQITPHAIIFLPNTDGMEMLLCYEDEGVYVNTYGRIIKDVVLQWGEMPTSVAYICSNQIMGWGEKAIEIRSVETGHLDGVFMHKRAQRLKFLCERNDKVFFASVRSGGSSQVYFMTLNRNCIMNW

## CCCS(=O)(=O)Nc1ccc(F)c(C(=O)c2c[nH]c3ncc(Cl)cc23)c1F [PLX4720]
A375 melanoma cell line
  GI50: 0.5 µM
BRAF(V600E); read-out: Percent control (50 nM)
  remaining activity at 0.05 µM: 38%
BRAF(V600E); read-out: Percent control (200 nM)
  remaining activity at 0.2 µM: 19%
BRAF(V600E); [6]
  remaining activity at 1 µM: 3.9%
BRAF(V600E); read-out: Percent control (10 μM)
  remaining activity at 10 µM: 0.1%
SRB12 cells
  suppression of UV-induced apoptosis: at least 70%
BRK (PTK6) [1]
  IC50: 0.0304 µM
  remaining binding at 0.05 µM: 47%
  remaining binding at 0.2 µM: 14%
  remaining binding at 1 µM: 2.4%
  remaining binding at 10 µM: 0.2%
phospho-ERK
  phospho-ERK expression: strongly suppressed
MLK2 (MAP3K10)
  remaining binding at 0.05 µM: 100%
  remaining binding at 0.2 µM: 82%
  remaining binding at 10 µM: 76%
MLK2 (MAP3K10); [6]
  remaining binding at 1 µM: 100%
HaCaT cells [2]
  suppression of UV-induced apoptosis: at least 70%
HaCaT cells [3]
  doxorubicin-induced apoptosis (Annexin V+, TMRE-low cells): significant decrease in apoptosis

## CCCS(=O)(=O)Nc1ccc(F)c(C(=O)c2c[nH]c3ncc(-c4ccc(Cl)cc4)cc23)c1F [vemurafenib]
BLK
  IC50: 0.547 µM
MINK (MINK1)
  IC50: > 1 µM
BRK (PTK6) [1]
  IC50: 0.068 µM
  remaining binding at 0.05 µM: 63%
  remaining binding at 0.2 µM: 28%
  remaining binding at 1 µM: 6.9%
  remaining binding at 10 µM: 0.35%
Human full-length ZAK; MBP substrate, ATP 2.5 μM, read-out: biochemical IC50
  IC50: 0.187 ± 0.005 µM
Human full-length ZAK; at 1 μM, read-out: residual activity
  remaining activity at 1 µM: 18.9 ± 0.5%
MAP4K5
  IC50: 0.051 µM
FGR
  IC50: 0.063 µM
MLK2 (MAP3K10)
  remaining binding at 0.05 µM: 92%
  remaining binding at 0.2 µM: 96%
  remaining binding at 10 µM: 78%
ASK1 (MAP3K5)
  IC50: > 1 µM
BRK (PTK6) [4]
  IC50: 0.213 µM
[5]
  UV-induced upregulation of phospho-JNK and phospho-p38: suppressed
